Measured values taken from article PMC6208323 (Cell chemical biology, 2018).
Read-outs that look alike come from different tables or passages of the source.

How the values were obtained:
TnmS1 = TnmS1 (Streptomyces sp. CB03234, UniProt A0A125SA24); test: fluorescence quenching; type: binding
TnmS2 = TnmS2 (Streptomyces sp. CB03234, UniProt A0A125SA26); test: fluorescence quenching; type: binding
(UniProt S2XVS8) = test: fluorescence quenching; type: binding, Streptomyces sp. HGB0020
CBFG_04671 = CBFG_04671 (Clostridium pacaense, UniProt A0ABV1D2N3); test: fluorescence quenching; type: binding
TnmS3 = TnmS3 (Streptomyces sp. CB03234, UniProt A0A125SA29); test: fluorescence quenching; type: binding
[1] = target: TnmS1 (Streptomyces sp. CB03234); test: SEC
[2] = target: TnmS2 (Streptomyces sp. CB03234); test: SEC
[3] = target: TnmS3 (Streptomyces sp. CB03234); test: SEC
[4] = 20 mM MOPS pH 7.0, 28 °C, 2 μM protein, ligand in DMSO

Chain of (UniProt S2XVS8) (S2XVS8 1-128): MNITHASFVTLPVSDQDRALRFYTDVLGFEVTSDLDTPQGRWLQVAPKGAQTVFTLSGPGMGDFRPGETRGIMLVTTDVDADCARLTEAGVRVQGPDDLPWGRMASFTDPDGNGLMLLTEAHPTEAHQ

COc1ccc2c(c1O)C(=O)c1c3c(cc(O)c1C2=O)[C@@]12O[C@@]1([C@@H](C)O)[C@H](C#C/C=C\C#C[C@H]2O)N3 [TNM A] gave a Kd (TnmS1) of 163 ± 17 nM, a Kd (TnmS2) of 246 ± 36 nM and a Kd ((UniProt S2XVS8)) of 164 ± 23 nM. It also gave a Kd (CBFG_04671) of 855 ± 66 nM and a Kd (TnmS3) of 108 ± 13 nM.
Work on TnmS1 (natural protein) yielded a stoichiometry N [1] of 2.
TNM C showed a Kd (TnmS1; [4]) of 350 ± 41 nM, a Kd (TnmS2; [4]) of 361 ± 65 nM and a Kd (TnmS3; [4]) of 215 ± 27 nM.
Compound TnmS2 (natural protein) has a stoichiometry N [2] of 2.
With Cc1cc2nc3c(=O)[nH]c(=O)nc-3n(C[C@H](O)[C@H](O)[C@H](O)CO)c2cc1C [riboflavin] the Kd (TnmS1) was 84100 nM, the Kd (TnmS2) was 59500 nM and the Kd (TnmS3) was 1100 nM.
TnmS3 (natural protein) was tested, and the stoichiometry N [3] was 2.
